Measured values from US20250129078A1, “ERBB2 INHIBITORS” (Cogent Biosciences, Inc., priority 2023, published 2025).
Read-outs that look alike come from different tables or passages of the source.

Assays:
[1] = molecular target: EGFR WT (Homo sapiens (Human), UniProt P00533); test: ErbB enzyme assay (CisBio HTRF-KinEASE-TK), EGFR WT; assay type: biochemical; details: ATP at Km (25 μM), 1 h incubation
Summary of the method: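 Potency comes from a homogeneous time-resolved fluorescence kinase format measuring tyrosine substrate phosphorylation. Reactions and detection steps each run 1 h at ambient temperature. IC50 values are interpolated from 4-parameter logistic fits of percent-of-control data.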

[2] = molecular target: ErbB2 V777L (Homo sapiens (Human), UniProt P04626, V777L); test: ErbB enzyme assay (CisBio HTRF-KinEASE-TK), ErbB2 V777L; assay type: biochemical
Summary of the method: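 HTRF KinEASE-TK tyrosine-kinase read-out of substrate phosphorylation after a final 1 h at ambient temperature, from the 655/620 nm emission ratio.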

ErbB2 V777L, sequence (P04626 23-1255 V777L): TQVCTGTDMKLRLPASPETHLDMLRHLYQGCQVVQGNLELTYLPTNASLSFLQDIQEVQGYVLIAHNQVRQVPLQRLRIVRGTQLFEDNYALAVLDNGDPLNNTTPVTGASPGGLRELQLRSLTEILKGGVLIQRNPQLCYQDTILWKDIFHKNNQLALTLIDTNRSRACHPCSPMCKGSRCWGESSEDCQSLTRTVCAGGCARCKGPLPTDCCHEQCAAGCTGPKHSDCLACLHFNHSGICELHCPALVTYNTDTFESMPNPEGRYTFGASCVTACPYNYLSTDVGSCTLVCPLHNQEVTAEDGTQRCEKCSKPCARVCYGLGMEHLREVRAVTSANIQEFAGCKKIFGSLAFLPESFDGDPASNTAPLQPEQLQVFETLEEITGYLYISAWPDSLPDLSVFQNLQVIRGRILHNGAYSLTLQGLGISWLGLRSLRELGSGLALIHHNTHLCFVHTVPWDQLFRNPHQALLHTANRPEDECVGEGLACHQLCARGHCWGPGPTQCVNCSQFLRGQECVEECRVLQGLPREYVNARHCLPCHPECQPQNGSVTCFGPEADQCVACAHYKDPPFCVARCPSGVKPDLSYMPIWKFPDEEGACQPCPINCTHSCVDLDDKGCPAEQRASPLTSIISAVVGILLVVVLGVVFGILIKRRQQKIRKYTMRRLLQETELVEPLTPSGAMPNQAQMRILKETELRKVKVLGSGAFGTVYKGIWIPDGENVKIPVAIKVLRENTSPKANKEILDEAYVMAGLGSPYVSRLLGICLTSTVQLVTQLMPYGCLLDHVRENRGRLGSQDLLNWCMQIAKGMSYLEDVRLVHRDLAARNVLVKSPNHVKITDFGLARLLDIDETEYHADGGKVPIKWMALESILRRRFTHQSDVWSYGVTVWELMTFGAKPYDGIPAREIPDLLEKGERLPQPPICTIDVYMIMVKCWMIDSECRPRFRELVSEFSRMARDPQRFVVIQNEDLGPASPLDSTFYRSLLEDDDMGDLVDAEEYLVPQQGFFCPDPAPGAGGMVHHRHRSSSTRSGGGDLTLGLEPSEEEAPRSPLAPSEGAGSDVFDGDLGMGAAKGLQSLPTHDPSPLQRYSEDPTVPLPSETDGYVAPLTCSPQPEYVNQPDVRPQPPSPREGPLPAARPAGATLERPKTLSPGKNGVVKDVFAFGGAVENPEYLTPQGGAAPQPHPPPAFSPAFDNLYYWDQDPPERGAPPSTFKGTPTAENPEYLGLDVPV
EGFR WT, sequence (P00533 25-1210): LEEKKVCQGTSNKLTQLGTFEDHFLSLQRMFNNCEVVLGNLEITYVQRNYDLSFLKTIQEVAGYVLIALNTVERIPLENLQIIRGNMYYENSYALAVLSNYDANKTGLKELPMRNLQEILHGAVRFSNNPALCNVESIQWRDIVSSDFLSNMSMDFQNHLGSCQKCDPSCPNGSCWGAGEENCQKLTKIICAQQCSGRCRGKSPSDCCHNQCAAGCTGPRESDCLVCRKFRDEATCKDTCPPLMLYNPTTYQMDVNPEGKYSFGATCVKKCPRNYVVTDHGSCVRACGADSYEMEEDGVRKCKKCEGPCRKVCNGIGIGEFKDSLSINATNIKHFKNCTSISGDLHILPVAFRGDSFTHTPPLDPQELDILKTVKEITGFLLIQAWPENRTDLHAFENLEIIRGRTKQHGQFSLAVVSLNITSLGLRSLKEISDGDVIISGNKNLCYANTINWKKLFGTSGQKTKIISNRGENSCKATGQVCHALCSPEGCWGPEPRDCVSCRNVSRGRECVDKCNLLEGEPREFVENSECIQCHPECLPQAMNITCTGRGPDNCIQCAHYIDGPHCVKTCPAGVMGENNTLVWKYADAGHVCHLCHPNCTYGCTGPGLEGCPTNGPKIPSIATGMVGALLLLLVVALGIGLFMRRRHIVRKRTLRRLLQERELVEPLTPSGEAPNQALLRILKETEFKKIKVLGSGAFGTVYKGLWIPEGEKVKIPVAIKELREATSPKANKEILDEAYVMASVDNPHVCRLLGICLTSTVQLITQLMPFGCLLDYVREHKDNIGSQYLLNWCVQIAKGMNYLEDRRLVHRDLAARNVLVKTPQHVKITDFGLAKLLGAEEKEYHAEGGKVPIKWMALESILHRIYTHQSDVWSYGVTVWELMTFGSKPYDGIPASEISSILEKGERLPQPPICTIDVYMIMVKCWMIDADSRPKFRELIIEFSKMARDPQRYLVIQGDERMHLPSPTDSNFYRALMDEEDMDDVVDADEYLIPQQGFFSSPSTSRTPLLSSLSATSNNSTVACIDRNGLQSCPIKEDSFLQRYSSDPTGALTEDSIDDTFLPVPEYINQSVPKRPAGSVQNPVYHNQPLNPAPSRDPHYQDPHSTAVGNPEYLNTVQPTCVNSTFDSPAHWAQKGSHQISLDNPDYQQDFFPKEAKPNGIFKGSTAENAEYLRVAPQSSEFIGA

| SMILES | IC50 [1] | IC50 [2] | IC50 ([2]; ErbB2 V777L enzyme, ATP at Km (110 μM), 1 h incubation) |
| --- | --- | --- | --- |
| C=CC(=O)N1CCN(c2ccc3ncnc(Nc4cc(C)c(Oc5ccc6c(c5)ncn6C(F)F)cc4OC)c3n2)C[C@H]1C [Compound 307, (R)-1-(4-(4-((4-((1-(difluoromethyl)-1H-benzo[d]imidazol-5-yl)oxy)-2-methoxy-5-methylphenyl)amino)pyrido[3,2-d]pyrimidin-6-yl)-2-methylpiperazin-1-yl)prop-2-en-1-one] | 100 to 500 nM | 100 to 500 nM |  |
| C=CC(=O)N1CCN(c2ccc3ncnc(Nc4cc(C)c(Oc5ccc6c(c5)nnn6C)cc4OC)c3n2)C[C@H]1C [Compound 316, (R)-1-(4-(4-((2-methoxy-5-methyl-4-((1-methyl-1H-benzo[d][1,2,3]triazol-5-yl)oxy)phenyl)amino)pyrido[3,2-d]pyrimidin-6-y1)-2-methylpiperazin-1-yl)prop-2-en-1-one] | 100 to 500 nM |  | 50 to 100 nM |
| C=CC(=O)N1CCN(c2ccc3ncnc(Nc4cc(C)c(Oc5ccc6c(c5)nnn6C)cc4OC(F)(F)F)c3n2)C[C@H]1C [Compound 317, (R)-1-(2-methyl-4-(4-((5-methyl-4-((1-methyl-1H-benzo[d][1,2,3]triazol-5-yl)oxy)-2-(trifluoromethoxy)phenyl)amino)py-rido[3,2-d]pyrimidin-6-yl)piperazin-1-yl)prop-2-en-1-one] | 100 to 500 nM | 100 to 500 nM |  |
| C=CC(=O)N1CCN(c2ccc3ncnc(Nc4ccc(Oc5ccc6c(c5)ncn6C(F)F)c(C)c4F)c3n2)CC1(C)C [Compound 321, 1-(4-(4-((4-((1-(difluoromethyl)-1H-benzo[d]imidazol-5-yl)oxy)-2-fluoro-3-methylphenyl)amino)pyrido[3,2-d]pyrimidin-6-y1)-2,2-dimethylpiperazin-1-yl)prop-2-en-1-one] | 500 to 1000 nM | 100 to 500 nM |  |
| C=CC(=O)N1CCN(c2ccc3ncnc(Nc4ccc(Oc5ccc6c(c5)nnn6C(F)F)c(C)c4F)c3n2)C[C@H]1C [Compound 323, (R)-1-(4-(4-((4-((1-(difluoromethyl)-1H-benzo[d][1,2,3]triazol-5-yl)oxy)-2-fluoro-3-methylphenyl)amino)pyrido[3,2-d]pyrimidin-6-yl)-2-methylpiperazin-1-yl)prop-2-en-1-one] | 100 to 500 nM | 500 to 1000 nM |  |
| C=CC(=O)N1CCN(c2ccc3ncnc(Nc4ccc(Oc5ccc6c(c5)nnn6C)c(C)c4F)c3n2)C[C@@H]1C [Compound 325, (S)-1-(4-(4-((2-fluoro-3-methyl-4-((1-methyl-1H-benzo[d][1,2,3]triazol-5-yl)oxy)phenyl)amino)pyrido[3,2-d]pyrimidin-6-yl)-2-methylpiperazin-1-yl)prop-2-en-1-one] | 100 to 500 nM | 100 to 500 nM |  |
| C=CC(=O)N1CCN(c2ccc3ncnc(Nc4cc(F)c(Oc5ccc6c(c5)nnn6C)c(C)c4F)c3n2)C[C@H]1C [Compound 326, (R)-1-(4-(4-((2,5-difluoro-3-methyl-4-((1-methyl-1H-benzo[d][1,2,3]triazol-5-yl)oxy)phenyl)amino)pyrido[3,2-d]pyrimidin-6-yl)-2-methylpiperazin-1-yl)prop-2-en-1-one] | 100 to 500 nM | 50 to 100 nM |  |
| C=CC(=O)N1CCN(c2ccc3ncnc(Nc4cc(F)c(Oc5ccc6c(c5)nnn6C)c(C)c4F)c3n2)CC1(C)C [Compound 327, 1-(4-(4-((2,5-difluoro-3-methyl-4-((1-methyl-1H-benzo[d][1,2,3]triazol-5-yl)oxy)phenyl)amino)pyrido[3,2-d]pyrimidin-6-yl)-2,2-dimethylpiperazin-1-yl)prop-2-en-1-one] | 100 to 500 nM | 100 to 500 nM |  |
| C=CC(=O)N[C@H]1CN(c2ccc3ncnc(Nc4ccc(Oc5ccc6c(c5)nnn6C)c(C)c4)c3n2)CC(F)(F)C1 [Compound 342, (R)-N-(5,5-difluoro-1-(4-((3-methyl-4-((1-methyl-1H-benzo[d][1,2,3]triazol-5-yl)oxy)phenyl)amino)pyrido[3,2-d]pyrimidin-6-yl)piperidin-3-yl)acrylamide] | 500 to 1000 nM | 100 to 500 nM |  |
| C=CC(=O)NC1(C(F)(F)F)CCN(c2ccc3ncnc(Nc4ccc(Oc5ccc6c(c5)nnn6C)c(C)c4F)c3n2)CC1 [Compound 345, N-(1-(4-((2-fluoro-3-methyl-4-((1-methyl-1H-benzo[d][1,2,3]triazol-5-yl)oxy)phenyl)amino)pyrido[3,2-d]pyrimidin-6-yl)-4-(trifluoromethyl)piperidin-4-yl)acrylamide] | 100 to 500 nM | 100 to 500 nM |  |
| C=CC(=O)N1C[C@@H](N(C)c2ccc3ncnc(Nc4ccc(Oc5ccc6c(c5)nnn6C)c(C)c4)c3n2)C[C@H]1C [Compound 351, 1-((2R,4S)-2-methyl-4-(methyl(4-((3-methyl-4-((1-methyl-H-benzo[d][1,2,3]triazol-5-yl)oxy)phenyl)amino)pyrido[3,2-d]pyrimidin-6-yl)amino)pyrrolidin-1-yl)prop-2-en-1-one] | 500 to 1000 nM | 100 to 500 nM |  |
| C=CC(=O)N1CCCN(c2ccc3ncnc(Nc4ccc(Oc5ccn6ncnc6c5)c(C)c4)c3n2)C[C@@H]1C [Compound 355, (S)-1-(4-(4-((4-([1,2,4]triazolo[1,5-a]pyridin-7-yloxy)-3-methylphenyl)amino)pyrido[3,2-d]pyrimidin-6-yl)-2-methyl-1,4-diazepan-1-yl)prop-2-en-1-one] | ≥ 1000 nM | 100 to 500 nM |  |
| Cc1c(Oc2ccc3c(c2)nnn3C)ccc(Nc2ncnc3ccc(N4CCN(C(=O)/C=C/CF)[C@H](C)C4)nc23)c1F [Compound 360, (R,E)-4-fluoro-1-(4-(4-((2-fluoro-3-methyl-4-((1-methyl-1H-benzo[d][1,2,3]triazol-5-yl)oxy)phenyl)amino)pyrido[3,2-d]pyrimidin-6-yl)-2-methylpiperazin-1-yl)but-2-en-1-one] | 100 to 500 nM | 50 to 100 nM |  |

Other lines, results leading:

| IC50 [1] | IC50 [2] | IC50 ([2]; ErbB2 V777L enzyme, ATP at Km (110 μM), 1 h incubation) | SMILES |
| --- | --- | --- | --- |
| 500 to 1000 nM | 100 to 500 nM |  | C=CC(=O)N1CCCN(c2ccc3ncnc(Nc4ccc(Oc5ccc6c(c5)nnn6C)c(C)c4)c3n2)CC1 [Compound 308, 1-(4-(4-((3-methyl-4-((1-methyl-1H-benzo[d][1,2,3]triazol-5-yl)oxy)phenyl)amino)pyrido[3,2-d]pyrimidin-6-yl)-1,4-diazepan-1-yl)prop-2-en-1-one] |
| ≥ 1000 nM | 500 to 1000 nM |  | C=CC(=O)N1CCC2(CCN(c3ccc4ncnc(Nc5ccc(Oc6ccc7c(c6)nnn7C)c(C)c5)c4n3)C2)C1 (stereo not shown) [Compound 311, 1-(7-(4-((3-methyl-4-((1-methyl-1H-benzo[d][1,2,3]triazol-5-yl)oxy)phenyl)amino)pyrido[3,2-d]pyrimidin-6-yl)-2,7-diazaspiro[4.4]nonan-2-yl)prop-2-en-1-one] |
| 100 to 500 nM | 100 to 500 nM |  | C=CC(=O)N1CCN(c2ccc3ncnc(Nc4cc(C)c(Oc5ccc6c(c5)nnn6C)cc4OC(F)(F)F)c3n2)CC1 [Compound 312, 1-(4-(4-((5-methyl-4-((1-methyl-1H-benzo[d][1,2,3]triazol-5-yl)oxy)-2-(trifluoromethoxy)phenyl)amino)py-rido[3,2-d]pyrimidin-6-yl)piperazin-1-yl)prop-2-en-1-one] |
| 100 to 500 nM | 50 to 100 nM |  | C=CC(=O)N1CCN(c2ccc3ncnc(Nc4cc(C)c(Oc5ccc6c(c5)nnn6C)cc4OC(F)F)c3n2)CC1 [Compound 315, 1-(4-(4-((2-(difluoromethoxy)-5-methyl-4-((1-methyl-1H-benzo[d][1,2,3]triazol-5-yl)oxy)phenyl)amino)pyrido[3,2-d]pyrimidin-6-yl)piperazin-1-yl)prop-2-en-1-one] |
| 100 to 500 nM | 100 to 500 nM |  | C=CC(=O)N1CCN(c2ccc3ncnc(Nc4ccc(Oc5ccc6c(c5)nnn6C(F)F)c(C)c4)c3n2)C[C@H]1C [Compound 320, (R)-1-(4-(4-((4-((1-(difluoromethyl)-1H-benzo[d][1,2,3]triazol-5-yl)oxy)-3-methylphenyl)amino)pyrido[3,2-d]pyrimidin-6-yl)-2-methylpiperazin-1-yl)prop-2-en-1-one] |
| 100 to 500 nM | 100 to 500 nM |  | C=CC(=O)N1CCN(c2ccc3ncnc(Nc4ccc(Oc5ccc6c(c5)nnn6C(F)F)c(C)c4)c3n2)CC1(C)C [Compound 324, 1-(4-(4-((4-((1-(difluoromethyl)-1H-benzo[d][1,2,3]triazol-5-yl)oxy)-3-methylphenyl)amino)pyrido[3,2-d]pyrimidin-6-yl)-2,2-dimethylpiperazin-1-yl)prop-2-en-1-one] |
| 100 to 500 nM | 50 to 100 nM |  | C=CC(=O)N1CCN(c2ccc3ncnc(Nc4ccc(Oc5ccc6c(c5)nnn6C)c(C)c4)c3n2)C[C@H]1C1CC1 [Compound 335, (R)-1-(2-cyclopropyl-4-(4-((3-methyl-4-((1-methyl-1H-benzo[d][1,2,3]triazol-5-yl)oxy)phenyl)amino)pyrido[3,2-d]pyrimidin-6-yl)piperazin-1-yl)prop-2-en-1-one] |
| 500 to 1000 nM | 100 to 500 nM |  | C=CC(=O)N1CCN(c2ccc3ncnc(Nc4ccc(Oc5ccc6c(c5)nnn6C)c(C)c4)c3n2)CC[C@@H]1C [Compound 354, (S)-1-(7-methyl-4-(4-((3-methyl-4-((1-methyl-1H-benzo[d][1,2,3]triazol-5-yl)oxy)phenyl)amino)pyrido[3,2-d]pyrimidin-6-yl)-1,4-diazepan-1-yl)prop-2-en-1-one] |
| ≥ 1000 nM | 500 to 1000 nM |  | C=CC(=O)N1CCN(c2ccc3ncnc(Nc4ccc(Oc5ccc6c(c5)nnn6C)c(C)c4)c3n2)CC[C@H]1C [Compound 356, (R)-1-(7-methyl-4-(4-((3-methyl-4-((1-methyl-1H-benzo[d][1,2,3]triazol-5-yl)oxy)phenyl)amino)pyrido[3,2-d]pyrimidin-6-yl)-1,4-diazepan-1-yl)prop-2-en-1-one] |
| 500 to 1000 nM | 50 to 100 nM |  | C=CC(=O)N1CCCN(c2ccc3ncnc(Nc4ccc(Oc5ccn6ncnc6c5)c(C)c4)c3n2)CC1 [Compound 357, 1-(4-(4-((4-([1,2,4]triazolo[1,5-a]pyridin-7-yloxy)-3-methylphenyl)amino)pyrido[3,2-d]pyrimidin-6-yl)-1,4-diazepan-1-yl)prop-2-en-1-one] |
